Test results: patent US6962706B1, “Synthetic peptides containing protective epitopes for the treatment and prevention of periodontitis associated with porphyromonas gingivalis” (The University of Melbourne, priority 1999, dated 2005)

tested on: serum IgG antibody (protective mouse sera, patient sera D20, D24, H10); assay: Epitope mapping ELISA of PIN-bound PrtR27 overlapping peptides with human and mouse antisera; assay type: binding; conditions: PIN-bound overlapping 13 mer peptides, antisera diluted 1:1000, O.D. 450 nm
Text: FIG. 6: Serum IgG antibody responses assessed by ELISA to Porphyromonas gingivalis PrtR-27 overlapping peptides (SEQ ID NOs:13-24, 33, and 25-32, respectively, from origin). Twenty one PIN-bound peptides were probed with normal mouse sera (▪), protective mouse sera (□), normal human serum (▪), patient D24 sera (▪), patient H10 sera (▪) and patient D20 sera (▪). ELISAs were developed as per Example 1.
Twenty overlapping 13 mer peptides (overlay by 6 and offset by 7 residues) corresponding to the N-terminal 148 residues of the PrtR27 were synthesised by Chiron Technologies (Melbourne, Australia) using the multipin peptide synthesis system. The sequence of the N-terminal 148 residues of the PrtR27 adhesin is as follows: • […] (SEQ ID NO: 12). The overlapping peptides synthesised were: • […] (SEQ ID NO:13) • […] (SEQ ID NO:14) • […] (SEQ ID NO:15) • […] (SEQ ID NO:16) • […] (SEQ ID NO:17) • […] (SEQ ID NO:18) • […] (SEQ ID NO:19) • […] (SEQ ID NO:20) • […] (SEQ ID NO:21) • […] (SEQ ID NO:22) • […] (SEQ ID NO:23) • […] (SEQ ID NO:24) • […] (SEQ ID NO:25) • […] (SEQ ID NO:26) • […] (SEQ ID NO:27) • […] (SEQ ID NO:28) • […] (SEQ ID NO:29) • […] (SEQ ID NO:30) • […] (SEQ ID NO:31) • […] (SEQ ID NO:32).
Epitope mapping of the pin-bound peptides was carried out by ELISA as per Chiron Technologies instructions using the human and mouse proteinase antisera at a dilution of 1:1000 in 1% w/v non-fat skim milk powder in 0.1M phosphate buffered saline, pH 7.4, containing 0.1% v/v Tween 20. The bound antibody was detected by incubating the peptide-PINS with 0.4 mM 3,3′,5,5′-tetramethylbenzidine in 0.1M sodium acetate/citric acid buffer containing 0.004% v/v H2O2. Colour development was stopped by the addition of 2M H2SO4. Optical density (O.D.) was measured at 450 nm using a BioRad microplate reader model 450.

Row | Sequence | Antibody binding of PrtR27 regions in ELISA (FIG. 6)
1 | FLLDADHNTFGSVIPATGPLFTGTASS (listed as Porphyromonas gingivalis) [EP1] | bind antibody
2 | LYSANFESLIPANADPVVTTQNIIVTG (listed as Porphyromonas gingivalis) [EP2] | bind antibody
3 | RYDDFTFEAGKKYTFTMRRAGMGDGTD (listed as Porphyromonas gingivalis) [EP5] | bind antibody
4 | TNPEPASGKMWIAGDGGNQP (listed as Porphyromonas gingivalis) [EP4] | bind antibody
